The text below walks through data of patent US20240196889A1, “USE OF DI- AND TRI[…] ACIDS IN THE PREVENTION OF BIOFILM FORMATION” (priority 2020, published 2024).

Test [1] relates to S. Typhimurium SL1344 (S1) in mixed-species biofilm with S2 and E1. Nature of the test: Mixed-species tolerance assay (CFU). In kind it is cell-based, Salmonella Typhimurium and E. coli. How it is done:
The monospecies and mixed-species biofilms were grown on petri dishes for 48 h at 25° C. as described above. The medium was then replaced by 5 ml PBS with either 0.25% H2O2 or 1 μM ciprofloxacin and the biofilms were incubated for an additional 1 h at 25° C. Subsequently, the biofilms were scraped off and plated out on solid LB agar plates for CFU determination. To differentiate between the strains, S1 was labelled with constitutive gfpmut3 on a plasmid, while S2 and E1 were labelled with plasmid-encoded constitutive dsRed.T4. Differences in colony shape and size allowed differentiation between S2 and E1 during CFU counting.

Test [2] deals with S. Typhimurium ATCC 14028. Nature of the test: Petri dish biofilm assay (CFU). The test is classed as cell-based, Salmonella enterica serovar Typhimurium. Conditions: 100 μM, 48 h, 25° C. How it is done: ONCs of S. Typhimurium ATCC 14028 were normalized to an OD595 of 3.2 and diluted 1/100 in a small (60 mm Ø) glass Petri dishes containing 10 ml of 1/20 TSB to which a final concentration of 100 μM agaric or the corresponding amount of DMSO was added. Around 12*10^7 ml^−1 cells were inoculated and incubated under static conditions at 25° C. for 48 h. Afterwards, the liquid above the biofilms was poured off and the biofilms were scraped off the bottom of the plate in 1 ml of PBS, passed through a syringe (25 G) and vortexed to break down the biofilm structure and ensure an homogenous suspension during dilution [Hermans et al. (2011). Journal of microbiological methods 84, 467-478]. The number of colony forming units (CFU) of biofilms was determined by plating.

The test system of test [3] is Salmonella genes related to biofilm formation. Briefly: Microtiter-plate-based GFP promoter fusion assay. The test is classed as cell-based, Salmonella Typhimurium ATCC 14028. Conditions: 100 μM. How it is done:
To unravel the mechanism by which agaric acid inhibits biofilm formation, an in house developed reporter GFP-promoter fusion library was screened. This library contains reporters for 130 Salmonella genes related to biofilm formation, including genes regulating matrix production, fimbriae and flagella synthesis, quorum sensing and c-di-GMP regulation (Table 2) [Robijns et al. (2014). Biofouling 30, 605-625.]. A time-lapse of the first 24 h of biofilm formation in microtiter plates was performed to identify genes that are differentially transcribed in the presence of 100 μM agaric acid. As these reporter fusions express the stable GFPmut3 variant as a fluorophore, the measured fluorescence values are the accumulation of fluorescence over time [Robijns et al. (2014). Biofouling 30, 605-625](FIG. 2).
1.5 μl of the reporter fusions' ONCs were transferred in three repeats to black polystyrene, clear-bottomed microtiter plates (Greiner bio-one 655096) containing 200 μl of 1/20 TSB with either a final concentration of 100 μM agaric or the corresponding amount of DMSO. Subsequently, the microtiter plates were incubated statically, at 25° C. for 24 h. Every 3 h, the fluorescence (excitation 488 nm, emission 511 nm) and absorbance at 600 nm (OD600) were measured using a Synergy MX multimode reader. For data analysis, blank measurements were subtracted from both the fluorescence (using a promoterless pFPV25 vector as control) and OD600. The ratio between the different OD600 values of the strains/conditions was used to normalize any effects on the fluorescence caused by growth differences in the bacteria. Significant differences in the level of fluorescence between treatment and control were determined using a two-tailed Student t-test (P<0.05).

The test system of test [4] is motA deletion mutant. Nature of the test: Biofilm formation of motA deletion mutant. The test is classed as cell-based, Salmonella. Conditions: addition of agaric acid to the deletion mutant.
Test [5] concerns Salmonella biofilms. Nature of the test: Tolerance assay of mature biofilms (H2O2 or ciprofloxacin, CFU). Conditions: grown 48 h with 100 μM. In kind it is cell-based. The procedure: It is well established that biofilms can be extremely tolerant to treatment with antimicrobials. To test whether the preventive addition of agaric acid renders Salmonella biofilms more susceptible to treatment with common disinfectants or antibiotics, biofilms grown in the presence and absence of agaric acid for 48 hour were treated for 1 h with 0.25% H2O2 or 1 μM ciprofloxacin. Hydrogen peroxide is a commonly used disinfectant in food industry [Meireles et al. (2016) Food Research International 82, 71-85; Meireles et al. (2016) Food Research International 82, 71-85], whereas ciprofloxacin is a fluoroquinolone antibiotic frequently used to treat Salmonella infections [Tabak et al. (2009) FEMS microbiology letters 301, 69-76].
To determine the tolerance of mature biofilms, biofilms were grown on microscopy glasses (75 mm×25 mm) placed vertical in a 50 ml falcon filled with 30 ml TSB 1/20. This set-up allows for easy transfer of mature biofilms as the top of vertical slide sticks out of the medium which allows to grab the slide with a pincer without damaging the biofilm. ONC of Salmonella were normalized to an OD600 of 3.2 and diluted 1/100 into the broth containing either a final concentration of 100 μM agaric or the corresponding amount of DMSO. […] The number of colony forming units (CFU) of biofilms was determined by plating.

Test [6] has as its system Salmonella Typhimurium ATCC 14028. Briefly: Staining of flagella. The following applies: 100 μM vs DMSO, 24 h. The test is classed as cell-based, Salmonella enterica serovar Typhimurium. How it is done: An ONC of Salmonella Typhimurium ATCC 14028 was diluted 1/100 in 5 ml TSB 1/20, with either a final concentration of 100 μM agaric or the corresponding amount of DMSO as a control. The planktonic cultures were incubated for 24 h at 25° C., shaking at 200 rpm. The flagella were stained according to Kearns and Losick (2003) Molecular microbiology 49, 581-590. Briefly, the stain consist of ten parts mordant (2 g tannic acid, 10 ml 5% phenol, 10 ml saturated aqueous AIK(SO4)2) mixed with one part stain (12% crystal violet in ethanol). 3 μl of sample was applied to a microscopic slide and covered with a 22 mm×40 mm coverslip. After placing the slide vertically, 10 μl was applied to the top edge of the coverslip in order to stain the sample due to capillary forces. Samples were visualized with phase contrast using a Zeiss Axio Imager Z1 microscope with an EC Plan Neofluar (×100 magnification/1.3 numerical aperture) objective.

In the case of `CCCCCCCCCCCCCCCCC(C(=O)O)C(O)(CC(=O)O)C(=O)O` (centres unmarked) [Agaric acid, 2-hydroxynonadecane-1,2,3-tricarboxylic acid], in test [1] (0.25% H2O2 or 1 μM ciprofloxacin, 1 h), the “enhanced tolerance of S1 in mixed-species conditions” value is recorded as “completely abolished the enhanced tolerance of S1”. For the same compound, the “number of S1 cells surviving antimicrobial treatment in mixed-species communities” value in test [1] (in presence of agaric acid) was “lowest number of S1 cells surviving antimicrobial treatment”. For the same compound, the “tolerance of remaining biofilm cells towards ciprofloxacin and H2O2” value in test [1] (preventive treatment, 0.25% H2O2 or 1 μM ciprofloxacin, 1 h) is “reduced the tolerance of the remaining biofilm cells”. The “number of cells (CFU) attaching to bottom of glass petri dish” value in test [2] is listed as “significantly inhibits the number of Salmonella cells attaching to the surface”. Moreover, in test [3], the “transcription of class III flagellar genes flgM, flgK and motA” value is reported as “significantly reduced”; the “transcription of tdcA, flgB, fljB and fliC” value is “not decreased at consecutive points”. Further, the “transcription of flhDC” value in test [3] (between 9 h and 15 h) is “increased compared to the control”. Further, the “transcription of csgB and adrA” value in test [3] (first 24 h) is “not influenced”. In addition, the “transcription of central biofilm regulatory genes CsgD and RpoS” value in test [3] (first 24 h of biofilm formation) was “not downregulated”. The “transcription of flagellar sigma factor fliA” value in test [3] (from 12 h onwards) is “significantly inhibited”. Moreover, the “biofilm formation of motA deletion mutant” value in test [4] was “did not further reduce biofilm formation”. Moreover, the “susceptibility of biofilms to ciprofloxacin” value in test [5] (then 1 μM ciprofloxacin for 1 h) is listed as “further increased the effect of a ciprofloxacin treatment, albeit not significantly”. The “susceptibility of biofilms to H2O2” value in test [5] (then 0.25% H2O2 for 1 h) is on record as “significantly more susceptible to hydrogen peroxide”. Moreover, in test [6], the flagellar appearance entry is recorded as “no differences in flagellar appearance”.
